According to article PMC11189555, “Aryl amino acetamides prevent Plasmodium falciparum ring development via targeting the lipid-transfer protein PfSTART1” (Nature Communications, 2024):
Where two headings read alike, the source gives them in different places.

What was measured:
[1] = tested on: 3D7 P. falciparum parasites; assay: Growth inhibition assay (72 h, LDH activity); type: cell-based, Plasmodium falciparum; conditions: for EC50: Plasmodium falciparum
Procedure: Parasite growth assays with inhibitory compounds were performed as per[11] and are fully described in the Supplementary Information. […]
Growth inhibition assays. Synchronised ring-stage parasites (0.3-0.6% parasitemia, 2% haematocrit) were grown for 72 h in a serial-dilution of the compound under […]
and compound 4. Note that M-833 was first purchased from MolPort (MolPort -002-267-916) then made in-house at WEHI: the differences observed in EC50s across experiments are attributed to the different batches of M -833. For some experiments, 0, 0.25 or 2.5 mM of glucosamine (GlcN) was also added. Experiments were set up in technical duplicates or triplicates. Following a freeze -thaw cycle, lactate dehydrogenase (LDH) activity was assessed as an indicator of parasite growt h 5. 30 μL of parasite culture was incubated for 30 min in the dark with 75 μL Malstat mixture (0.1 M Tris pH 9.0, 20 g/L lactic acid, pH 7.5, 0.2% Triton-X100, 0.5 g/L acetylpyridine adenine dinucleotide (APAD, Sigma), 200 μg/mL nitroblue tetrazolium (NBT; Sigma), 1 μg/mL phenozine ethosulfate (PES; Sigma)). Absorbance was then measured at 650 nm, transformed using the formula below, plotted against the logarithm of the concentrations, and a non-linear regression (log(inhibitor) vs. response, variable slope) was calculated using GraphPad Prism to assess the half-inhibitory […]
Growth inhibition % = (1 − average(sample)− average(uRBC)) ∗ 100 […]
The DMSO samples were also used to assess growth of parasite in the presence of 0.25 and 2.5 mM GlcN (normalised by DMSO in 0 mM GlcN). […]

in vitro = conditions: human

Structure (SMILES): O=C(CNc1ccc(Cl)c(S(=O)(=O)N2CCOCC2)c1)Nc1ccc(F)c(Cl)c1 [compound 2, reference compound]
- (av-uRBC) / (DMSO-uRBC) x100 ([1]; 3D7, conc. 3.04832 nM, Biological replicate 1 (2021-10-25)): 101.583
- (av-uRBC) / (DMSO-uRBC) x100 ([1]; 3D7, conc. 3.04832 nM, Biological replicate 2 (2021-11-03)): 104.234
- (av-uRBC) / (DMSO-uRBC) x100 ([1]; 3D7, conc. 3.04832 nM, Biological replicate 3 (2021-11-11)): 118.798
- (av-uRBC) / (DMSO-uRBC) x100 ([1]; 3D7, conc. 9.14495 nM, Biological replicate 1 (2021-10-25)): 98.3522
- (av-uRBC) / (DMSO-uRBC) x100 ([1]; 3D7, conc. 9.14495 nM, Biological replicate 2 (2021-11-03)): 106.026
- (av-uRBC) / (DMSO-uRBC) x100 ([1]; 3D7, conc. 9.14495 nM, Biological replicate 3 (2021-11-11)): 112.58
- (av-uRBC) / (DMSO-uRBC) x100 ([1]; 3D7, conc. 27.4348 nM, Biological replicate 1 (2021-10-25)): 92.7855
- (av-uRBC) / (DMSO-uRBC) x100 ([1]; 3D7, conc. 27.4348 nM, Biological replicate 2 (2021-11-03)): 105.906
- (av-uRBC) / (DMSO-uRBC) x100 ([1]; 3D7, conc. 27.4348 nM, Biological replicate 3 (2021-11-11)): 106.329
- (av-uRBC) / (DMSO-uRBC) x100 ([1]; 3D7, conc. 82.3045 nM, Biological replicate 1 (2021-10-25)): 76.9881
- (av-uRBC) / (DMSO-uRBC) x100 ([1]; 3D7, conc. 82.3045 nM, Biological replicate 2 (2021-11-03)): 101.625
- (av-uRBC) / (DMSO-uRBC) x100 ([1]; 3D7, conc. 82.3045 nM, Biological replicate 3 (2021-11-11)): 81.2348
- (av-uRBC) / (DMSO-uRBC) x100 ([1]; 3D7, conc. 246.914 nM, Biological replicate 1 (2021-10-25)): 38.3866
- (av-uRBC) / (DMSO-uRBC) x100 ([1]; 3D7, conc. 246.914 nM, Biological replicate 2 (2021-11-03)): 48.8275
- (av-uRBC) / (DMSO-uRBC) x100 ([1]; 3D7, conc. 246.914 nM, Biological replicate 3 (2021-11-11)): 35.6638
- (av-uRBC) / (DMSO-uRBC) x100 ([1]; 3D7, conc. 740.741 nM, Biological replicate 1 (2021-10-25)): 12.6522
- (av-uRBC) / (DMSO-uRBC) x100 ([1]; 3D7, conc. 740.741 nM, Biological replicate 2 (2021-11-03)): 13.3573
- (av-uRBC) / (DMSO-uRBC) x100 ([1]; 3D7, conc. 740.741 nM, Biological replicate 3 (2021-11-11)): 9.565
- (av-uRBC) / (DMSO-uRBC) x100 ([1]; 3D7, conc. 2222.22 nM, Biological replicate 1 (2021-10-25)): 9.471
- (av-uRBC) / (DMSO-uRBC) x100 ([1]; 3D7, conc. 2222.22 nM, Biological replicate 2 (2021-11-03)): 10.1641
- (av-uRBC) / (DMSO-uRBC) x100 ([1]; 3D7, conc. 2222.22 nM, Biological replicate 3 (2021-11-11)): 7.82
- (av-uRBC) / (DMSO-uRBC) x100 ([1]; 3D7, conc. 6666.67 nM, Biological replicate 1 (2021-10-25)): 8.762
- (av-uRBC) / (DMSO-uRBC) x100 ([1]; 3D7, conc. 6666.67 nM, Biological replicate 2 (2021-11-03)): 10.3401
- (av-uRBC) / (DMSO-uRBC) x100 ([1]; 3D7, conc. 6666.67 nM, Biological replicate 3 (2021-11-11)): 6.881
- (av-uRBC) / (DMSO-uRBC) x100 ([1]; 3D7, conc. 20000 nM, Biological replicate 1 (2021-10-25)): 8.397
- (av-uRBC) / (DMSO-uRBC) x100 ([1]; 3D7, conc. 20000 nM, Biological replicate 2 (2021-11-03)): 8.683
- (av-uRBC) / (DMSO-uRBC) x100 ([1]; 3D7, conc. 20000 nM, Biological replicate 3 (2021-11-11)): 3.998
- EC50 ([1]; 3D7, 72 h, Supplementary Table 1, 3D7, 72 h, read-out: EC50): 171 nM
- EC50 ([1]; 3D7, Fig 4A, 3D7 parasites, read-out: Pf 3D7 EC50 (SD)): 140 nM
- CC50 (in vitro): > 40000 nM
